Measured values taken from patent US9980942B2, “Rejuvenation of precursor cells” (Children's Hospital Medical Center, priority 2012, dated 2018).

Legend:
[1] = test system: skin; experiment: Topical rejuvenation of dermal tissue; format: in vivo; settings: aged mice, topical non-transdermal formulation
Description: To further assess the effects of in vivo administration of CASIN on aging parameters in the skin, aged mice are treated with CASIN as described in Example 5. However, instead of intraperitoneal injection, CASIN is administered topically in a formulation designed for non-transdermal use. The treated and untreated aged and young mice are then tested for skin thickness and wound healing.

[2] = test system: dorsal skin; experiment: Wound healing of full-thickness excision wounds after CASIN injection; format: in vivo, mice
Description: To further assess the effects of in vivo administration of CASIN on aging parameters in the skin, aged mice are treated with CASIN as described in Example 5. The treated and untreated aged and young mice are then tested for and wound healing, as described below.
On day 28 after initial treatment with CASIN, each mouse is tested with 25 mm oblong full-thickness excision wounds (6 mice of each type per experiment), including the striated muscle layer (panniculus carnosus), on the dorsal skin of treated and untreated mice. One day after surgery a clear thin film of dried exudate covers the wounds in both untreated and treated mice. Build-up of dehydrated wound crusts or scabs begin at day 3 and become subsequently more extensive. In the aged, untreated mice, scabs are thicker and extravasation of blood, visible in the gaps within the scabs, is more frequent and extensive than that in the treated mice. In control young mice, and in treated aged mice, loss of wound scabs begins at day 17 and is complete in all mice by day 24 with wounds well-healed and epithelial covering restored. In contrast, the scabs in untreated aged mice start to come off partially around day 14, resulting in a scab with a gaping red wound field, which is evident even at 22 days. Healing of untreated aged mice wounds remains incomplete on day 24, and complete healing in all mice is observed between 25 and 31 days. These experiments indicate that transient treatment (days 1-5) with CASIN causes improved healing of skin wounds.

[3] = biological target: T1, Cdc42 (Mus musculus, UniProt P60766); experiment: Cdc42-GTPase effector domain pull-down / Western blot; format: cell-based; settings: CASIN 5 μM, aged lineage depleted bone marrow cells
T1 construct: lineage depleted BM cells (10^6) were lysed in a Mg2+ lysis/wash buffer; endogenous in cells; host or cells: lineage-depleted bone marrow (Lin- BM) cells from aged C57BL/6 mice
Description: Relative levels of GTP-bound Cdc42 were determined by an effector pull-down assay. Briefly, lineage depleted BM cells (10^6) were lysed in a Mg2+ lysis/wash buffer (Upstate cell signaling solutions) containing 10% glycerol, 25 mM sodium fluoride, 1 mM sodium orthovanadate and a protease inhibitor cocktail (Roche Diagnostics). Samples were incubated with PAK-1 binding domain/agarose beads and bound (activated) as well as unbound (non-activated) Cdc42 fractions were probed by immunoblotting with an anti-Cdc42 antibody (Millipore, rabbit polyclonal). Activated protein was normalized to total protein and/or β-actin (Sigma) and the relative amount was quantified by densitometry.

[4] = test system: aged LT-HSCs; experiment: Immunofluorescence polarity scoring of Cdc42 and tubulin; format: cell-based, mouse
Description: Freshly sorted LT-HSCs were seeded on fibronectin-coated glass coverslips in HBSS+10% FBS. CASIN (referred to in (Peterson et al., 2006) as Pirl1-related compound 2) was obtained from Chembridge Corporation, and purified to greater than 99% by high-performance liquid chromatography. After 16 hours of incubation at 37° C., 5% CO2, 3% O2, cells were fixed with BD Cytofix Fixation Buffer (BD Biosciences).
After fixation cells were gently washed with PBS, permeabilized with 0.2% Tryton X-100 (Sigma) in PBS for 20 minutes and blocked with 10% Donkey Serum (Sigma) for 30 minutes. Primary and secondary antibodies incubations were performed for 1 hr at room temperature. […] The cells were coimmunostained with an anti-alpha tubulin antibody (Abcam, rat monoclonal ab6160) detected with an anti-rat AMCA-conjugated secondary antibody or an anti-rat DyLight 488-conjugated antibody (Jackson ImmunoResearch), an anti-Cdc42 antibody (Millipore, rabbit polyclonal) detected with an anti-rabbit DyLight 549-conjugated antibody (Jackson ImmunoResearch) and an anti-Pericentrin-2 antibody (Santa Cruz Biotechnology, goat polyclonal) detected with an anti-goat MCAconjugated antibody (Jackson ImmunoResearch). […] Images were analyzed with AxioVision 4.6 software. Alternatively, samples were analyzed with an LSM710 confocal microscope (Zeiss) equipped with a 63X objective. […]

[5] = treated aged mice, 25 mm full-thickness excision wounds

T1 sequence (P60766 whole entry, the tested form may be a part): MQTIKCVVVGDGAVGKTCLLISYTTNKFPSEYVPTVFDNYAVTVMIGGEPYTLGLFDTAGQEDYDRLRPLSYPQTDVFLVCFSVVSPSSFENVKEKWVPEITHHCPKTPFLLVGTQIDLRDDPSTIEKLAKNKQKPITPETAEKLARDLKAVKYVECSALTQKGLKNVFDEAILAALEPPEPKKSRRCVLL

OCCNC1CCCc2c1[nH]c1ccc(-c3ccccc3)cc21 (centres unmarked) [CASIN]
skin thickness [1]: approximately equal to that of young mice
wound healing [1]: respond similarly or nearly identical to the skin of young mice
wound healing ([2]; aged mice treated as in Example 5): respond similarly or nearly identical to the skin of young mice
loss of wound scabs begins [2, 5]: 17 days
loss of wound scabs complete in all mice [2, 5]: ≤ 24 days
level of active Cdc42 (Cdc42-GTP) [3]: reduced the elevated level of active Cdc42 observed in aged primitive hematopoietic cells to the level observed in young cells
time the increase in percentage of polar cells remained stable after CASIN withdrawal ([4]; aged LT-HSCs in vitro): ≥ 6 h
percentage of polarized cells (Cdc42 and tubulin) ([4]; aged LT-HSCs, 2.5 and 5 μM CASIN): dose-dependent increase
